From patent US20250170132A1, “SALTS AND POLYMORPHIC FORMS OF MENIN INHIBITORS AND PHARMACEUTICAL COMPOSITIONS THEREOF” (Syndax Pharmaceuticals, Inc., priority 2023, published 2025)
Like-named read-outs stand apart in the source and are kept apart here.

Assays:
[1] = system: cells harboring MLLr fusions; test: Activity in cells harboring MLLr fusions; format: cell-based
Excerpt: (§1) Menin inhibitor (e.g., Compound A or a pharmaceutically acceptable salt thereof) disrupts the interaction between menin and the MLL1 fusion proteins which is required for leukemogenic activity, thus impairing expression of critical oncogenes, causing growth arrest and the inhibition of cellular proliferation. Small molecule inhibitors of the menin-MLL interaction have been reported.

[2] = Aqueous solubility of Compound A salts; format: physicochemical; details: across the physiological pH range
Method: Solubility of Compound A citrate was determined in 3 different types of matrices: unbuffered water, citrate-buffered solutions from pH 3 to 6, and formulations consisting of citrate, advantame, methylparaben sodium, potassium sorbate, and sodium chloride at pH ranging from 3 to 6. Solubility in unbuffered water at ambient temperature was 38.5 mg/mL.
The target pH was reassessed when the F3 formulation was developed. Compound A citrate solubility studies were performed initially in simple buffered solutions to assess solubility trends as a function of pH. […] The target concentration of Compound A was therefore changed to 40 mg/mL as a compromise between drug substance and preservatives dissolution rate and stability.

[3] = Excipient compatibility study with Compound A monocitrate monohydrate; format: physicochemical
Method: The list of excipients for this study was restricted to those already being used in the tablet formulation provided in Example 7. OpaDry Orange was further added.
Binary mixtures of Compound A monocitrate monohydrate and each excipient, were placed in closed 20 mL borosilicate glass vials (Tables 45-47). The vials were stored at 25° C./60% RH, 30° C./65% RH, and 40° C./75% RH over 8 weeks and later analyzed using methods for Appearance, Compound A Assay, Related Substances, XRPD, and Differential Scanning calorimetry (DSC).

[4] = Pharmacokinetics in patients with relapsed or refractory acute leukemia; format: in vivo, human; details: for Tmax: read-out: Tmax Median; for AUC(0-t): read-out: AUC0-12 h
Excerpt: The pharmacokinetics of Compound A were characterized in patients with relapsed or refractory acute leukemia following single and multiple oral administration of Compound A with or without strong CYP3A4 inhibitors. Steady-state pharmacokinetic parameters are presented as geometric mean [geometric coefficient of variation (% CV)] unless otherwise specified.

CYP3A4 = biological target: T1, CYP3A4 (Homo sapiens, UniProt P08684); test: Drug interaction studies (clinical studies); format: in vivo; details: for AUC increase / Cmax increase: multiple doses
T1 construct: from tissue
T1 sequence (P08684 whole entry): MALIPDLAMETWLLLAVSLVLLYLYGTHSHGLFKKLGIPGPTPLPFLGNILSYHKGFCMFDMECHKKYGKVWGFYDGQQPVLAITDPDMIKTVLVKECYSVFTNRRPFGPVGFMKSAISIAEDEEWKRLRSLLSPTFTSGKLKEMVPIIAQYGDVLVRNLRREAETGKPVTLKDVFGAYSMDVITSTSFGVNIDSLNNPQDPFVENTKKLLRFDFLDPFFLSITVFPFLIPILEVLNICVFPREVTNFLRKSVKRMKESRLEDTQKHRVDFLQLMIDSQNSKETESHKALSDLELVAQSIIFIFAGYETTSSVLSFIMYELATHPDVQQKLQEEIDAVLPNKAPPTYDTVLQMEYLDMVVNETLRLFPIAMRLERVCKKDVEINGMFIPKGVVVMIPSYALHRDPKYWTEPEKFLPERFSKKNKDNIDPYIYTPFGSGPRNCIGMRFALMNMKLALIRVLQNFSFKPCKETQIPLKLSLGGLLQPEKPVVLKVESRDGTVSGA
Excerpt: Strong CYP3A4 Inhibitors: Compound A AUC and Cmax is increased by 2-fold following concomitant use of multiple doses of Compound A with certain azole antifungals that are strong CYP3A4 inhibitors (i.e., posaconazole, itraconazole, and voriconazole).

menin = biological target: T2, menin (Homo sapiens, UniProt O00255); test: Binding to the MLL1 binding pocket on menin
T2 sequence (O00255 1-610): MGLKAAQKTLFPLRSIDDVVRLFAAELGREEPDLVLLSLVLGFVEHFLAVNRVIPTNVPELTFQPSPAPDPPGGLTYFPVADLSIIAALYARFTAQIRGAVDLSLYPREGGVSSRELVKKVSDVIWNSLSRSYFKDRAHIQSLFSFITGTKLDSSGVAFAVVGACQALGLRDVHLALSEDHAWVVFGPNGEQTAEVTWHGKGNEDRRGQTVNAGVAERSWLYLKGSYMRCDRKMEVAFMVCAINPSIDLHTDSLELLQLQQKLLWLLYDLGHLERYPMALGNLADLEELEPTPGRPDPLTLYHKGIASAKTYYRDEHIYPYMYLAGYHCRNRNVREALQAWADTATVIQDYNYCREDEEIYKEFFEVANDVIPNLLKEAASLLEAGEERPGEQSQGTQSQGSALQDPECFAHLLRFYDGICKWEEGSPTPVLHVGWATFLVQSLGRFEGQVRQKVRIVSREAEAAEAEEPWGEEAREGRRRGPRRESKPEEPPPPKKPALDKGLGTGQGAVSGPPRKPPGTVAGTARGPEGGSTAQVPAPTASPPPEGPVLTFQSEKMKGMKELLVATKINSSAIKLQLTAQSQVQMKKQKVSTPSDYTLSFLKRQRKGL
Excerpt: as §1

[5] = Polymorph screening of Compound A citrate salt, form conversion (XRPD, DSC/TGA, DVS); format: physicochemical; details: drying of wet cake (Form B); presence of water (Form C)
[6] = Slurry and solvent evaporation polymorph experiments of Compound A citrate salt (Table 9); format: physicochemical; details: upon drying
Method: Based on the approximate solubility data of Compound A citrate salt, 18 polymorph experiments were started at RT with stirring (Table 9). Wet cakes from the slurry experiments were analyzed after 5 days of stirring. Wet cake XRPD patterns were checked and materials showing no pattern change were heated from RT to 50° C.
Procedure • 1) Slurry at RT: ˜35 mg citrate salt was slurried in different solvents in 4 mL vials using a magnetic stirrer at RT. The solids in slurry were characterized by XRPD after 3-5 days. • 2) Slurry at 50° C.: Slurries with no change in wet cake XRPD pattern when compared to starting material were heated from RT to 50° C. Samples were analyzed after 2-3 days of stirring.
Wet cake samples were isolated and kept at 25° C. for 2 h for drying. After drying, samples were analyzed by XRPD.

[7] = Single crystal structure, solvate exchange under ambient conditions; format: physicochemical; details: after exposure to ambient conditions, analyzed at 273 K
Method: Plate-like crystals (FIG. 9) were grown by recrystallization from methanol of Compound A monocitrate monomethanolate by evaporation (prepared from methanol/water 90:10 v/v).

[8] = Form C characterization and relative stability of the forms; format: physicochemical; details: ambient conditions
Excerpt: Moreover, HNMR studies validated a 1:1 stoichiometry between the freebase and acid.

[9] = system: NPM1c mutant AML patient-derived xenograft models; details: orally active menin inhibitor; cited from earlier work
NPM1c cells = details: cited from earlier work
[10] = 2 pediatric patients, 160 mg/m^2 without strong CYP3A4 inhibitors
[11] = human, plasma, oral, 163 mg twice daily with strong CYP3A4 inhibitors, steady-state, geometric mean
[12] = human, plasma, oral, 276 mg twice daily without strong CYP3A4 inhibitors, steady-state, geometric mean
[13] = low fat meal, approximately 400-500 calories, 25% of calories from fat
[14] = single dose of radiolabeled Compound A 276 mg, adult patients
[15] = with cobicistat (strong CYP3A4 inhibitor)
[16] = with strong CYP3A4 inhibitor azole antifungals (posaconazole, itraconazole, voriconazole)

In the case of `CCN(C(=O)c1cc(F)ccc1Oc1cncnc1N1CC2(CCN(C[C@H]3CC[C@H](NS(=O)(=O)CC)CC3)CC2)C1)C(C)C` [Compound A, trans N-ethyl-2-((4-(7-((4-(ethylsulfonamido)cyclohexyl)methyl)-2,7-diazaspiro[3.5]nonan-2-yl)pyrimidin-5-yl)oxy)-5-fluoro-N-isopropylbenzamide], the “activity in cells harboring MLLr fusions” value [1] is reported as “displays activity across a range of cells harboring MLLr fusions”, the solubility [2] is reported as “high solubility” and the “Assay (%) Results” value ([3]; 8 week, 25° C./60% RH closed) is reported as 100.3%. The “Assay (%) Results” value ([3]; 8 week, 30° C./65% RH closed) was 101.4%, the “Assay (%) Results” value ([3]; 8 week, 40° C./75% RH closed) was 100.0% and the “Assay (%) Results” value ([3]; Initial (t = 0), closed glass vials) was 98.8%. The “Apparent Clearance” value ([4]; 163 mg twice daily with strong CYP3A4 inhibitors, steady-state, geometric mean) was 7 L/h, the “Apparent Clearance” value ([4]; 276 mg twice daily without strong CYP3A4 inhibitors, steady-state, geometric mean) was 27 L/h and the “AUC0-tau, individual patients” value [4, 10] was 16300 ng·h/mL. The “steady-state Cmax, individual patients” value [4, 10] was 4790 ng/mL, the “Dose Proportionality” value ([4]; dosage range of 113 mg to 339 mg) was “Dose proportional increases in Cmax and AUC0-12 h” and the “Effect of body weight and BSA on pharmacokinetics” value ([4]; higher exposures with lower body weight and BSA) was “significant effect”. The “Metabolism: Primary Pathway” value ([4]; human, in vivo) was “CYP3A4”, the fraction unbound ([4]; human, in vivo, independent of concentration, read-out: Protein Binding (converted)) was 0.1 and the AUC ([4]; human, plasma, oral, 95 mg/m2, pediatric patients, 95 mg/m^2 with strong CYP3A4 inhibitors, read-out: steady-state AUC0-tau, geometric mean (geometric CV %)) was 14600 ng·h/mL. The Cmax ([4]; human, plasma, oral, 95 mg/m2, pediatric patients, 95 mg/m^2 with strong CYP3A4 inhibitors, read-out: steady-state Cmax, geometric mean (geometric CV %)) was 3140 ng/mL, the AUC ([4]; human, plasma, oral, 160 mg/m2, 2 pediatric patients, 160 mg/m^2 without strong CYP3A4 inhibitors, read-out: AUC0-tau, individual patients) was 25600 ng·h/mL and the Cmax ([4]; human, plasma, oral, 160 mg/m2, 2 pediatric patients, 160 mg/m^2 without strong CYP3A4 inhibitors, read-out: steady-state Cmax, individual patients) was 4950 ng/mL. For the same compound, the Cmax ([4]; human, plasma, oral, 163 mg, 163 mg twice daily with strong CYP3A4 inhibitors, steady-state, geometric mean, patients, read-out: Cmax) was 3220 ng/mL, the Cmax ([4]; human, plasma, oral, 276 mg, 276 mg twice daily without strong CYP3A4 inhibitors, steady-state, geometric mean, patients, read-out: Cmax) was 2050 ng/mL and the Tmax ([4]; human, plasma, oral, 163 mg twice daily with strong CYP3A4 inhibitors) was 2 h. The half-life [4, 11] was 7.5 h, the AUC(0-t) [4, 11] was 22600 ng·h/mL and the Tmax ([4]; human, plasma, oral, 276 mg twice daily without strong CYP3A4 inhibitors) was 1 h. The half-life [4, 12] was 3.6 h, the AUC(0-t) [4, 12] was 10200 ng·h/mL and the Vd ([4]; human, plasma, oral, steady-state, geometric mean (% CV), read-out: Apparent Volume of Distribution) was 78 L. The “AUC decrease with low fat meal” value [4, 13] was 12%, the “Cmax decrease with low fat meal” value [4, 13] was 27% and the “Excretion in Feces” value [4, 14] was roughly 49%. For the same compound, the “Excretion in Feces, unchanged” value [4, 14] was 7%, the “Excretion in Urine” value [4, 14] was roughly 27% and the “Excretion in Urine, unchanged” value [4, 14] was 7%. The Accumulation ([4]; steady-state) was 2-fold, the “Time to Steady-State” value ([4]; twice daily oral dosing, patients) was 2 to 3 days and the AUC increase (CYP3A4; [15]) was 2.5 fold. For the same compound, the Cmax increase (CYP3A4; [15]) was 2.5 fold, the Differences in pharmacokinetics (CYP3A4; with fluconazole (moderate CYP3A4 inhibitor)) was “No clinically significant differences” and the Differences in pharmacokinetics (CYP3A4; with isavuconazole (moderate CYP3A4 inhibitor)) was “No clinically significant differences”. The AUC increase (CYP3A4; [16]) was 2 fold, the Cmax increase (CYP3A4; [16]) was 2 fold and the “binding affinity to the MLL1 binding pocket on menin” value (menin) was “high affinity”.

With `CCN(C(=O)c1cc(F)ccc1Oc1cncnc1N1CC2(CCN(C[C@H]3CC[C@H](NS(=O)(=O)CC)CC3)CC2)C1)C(C)C.CO.O=C(O)CC(O)(CC(=O)O)C(=O)O` [Form B] the “stability of polymorphic form / conversion” value [5] was “unstable form and converts to Form A upon drying”, the Form conversion [6] was “converts to Form A upon drying” and the “Solvate exchange of single crystal” value [7] was “transformed into a monohydrate”. For the same compound, the Form conversion [8] was “transitions to Form A”.

For `CNc1nc(NC2CCN(Cc3ccc4c(cc(C#N)n4C[C@H](C)N4CCN(S(C)(=O)=O)CC4)c3C)CC2)c2cc(CC(F)(F)F)sc2n1` [KO-539], the anti-leukemic activity [9] is listed as “robust anti-leukemic activity”.

For `Cc1c(CN2CCC(Nc3ncnc4sc(CC(F)(F)F)cc34)CC2)ccc2c1cc(C#N)n2Cc1cn[nH]c1` [MI-503], the “effect on HOXA/MEIS1 transcription program in NPM1c cells” value (NPM1c cells) is given as “suppress the HOXA/MEIS1 transcription program in NPM1c cells, leading to growth arrest, terminal differentiation and cell death”.
